The values below come from patent publication US11331369B2, “Endoparasitic depsipeptides” (Zoetis Services LLC, priority 2017, dated 2022).

The assay relates to microfilariae of Dirofilaria immitis. Description: Dirofilaria immitis, Microfilaria (DiMF) In vitro Assay. In kind it is cell-based. The conditions noted are these: 72 h, read-out: DiMF Minimum Effective Dose (MED), approximately 72 hours incubation, microfilariae assessed for survival or paralysis.
With `CC(C)C[C@H]1C(=O)O[C@H](Cc2ccc(CN3CCCOC3=O)cc2)C(=O)N(C)[C@@H](CC(C)C)C(=O)O[C@H](C)C(=O)N(C)[C@@H](CC(C)C)C(=O)O[C@H](Cc2ccccc2)C(=O)N(C)[C@@H](CC(C)C)C(=O)O[C@H](C)C(=O)N1C` [Example 10-25, (3S,6R,9S,12R,15S,18R,21S,24R)-6-benzyl-3,9,15,21-tetraisobutyl-4,10,12,16,22,24-hexamethyl-18-(4-((2-oxo-1,3-oxazinan-3-yl)methyl)benzyl)-1,7,13,19-tetraoxa-4,10,16,22-tetraazacyclotetracosan-2,5,8,11,14,17,20,23-octaone], the minimal effective concentration lay within 0.01 to 0.1 µM.
In the case of `Cc1nn(Cc2ccc(C[C@H]3OC(=O)[C@H](CC(C)C)N(C)C(=O)[C@@H](C)OC(=O)[C@H](CC(C)C)N(C)C(=O)[C@@H](Cc4ccccc4)OC(=O)[C@H](CC(C)C)N(C)C(=O)[C@@H](C)OC(=O)[C@H](CC(C)C)N(C)C3=O)cc2)c(C)c1Cl` [Example 2-50, (3S,6R,9S,12R,15S,18R,21S,24R)-6-benzyl-18-(4-((4-chloro-3,5-dimethyl-1H-pyrazol-1-yl)methyl)benzyl)-3,9,15,21-tetraisobutyl-4,10,12,16,22,24-hexamethyl-1,7,13,19-tetraoxa-4,10,16,22-tetraazacyclotetracosan-2,5,8,11,14,17,20,23-octaone] it was 0.01 to 0.1 µM.
Take `CC(C)C[C@H]1C(=O)O[C@H](Cc2ccc(Cn3cc(C(F)F)cn3)cc2)C(=O)N(C)[C@@H](CC(C)C)C(=O)O[C@H](C)C(=O)N(C)[C@@H](CC(C)C)C(=O)O[C@H](Cc2ccc(Cn3cc(C(F)F)cn3)cc2)C(=O)N(C)[C@@H](CC(C)C)C(=O)O[C@H](C)C(=O)N1C` [Example 1b-62, (3S,6R,9S,12R,15S,18R,21S,24R)-6,18-bis(4-((4-(difluoromethyl)-1H-pyrazol-1-yl)methyl)benzyl)-3,9,15,21-tetraisobutyl-4,10,12,16,22,24-hexamethyl-1,7,13,19-tetraoxa-4,10,16,22-tetraazacyclotetracosan-2,5,8,11,14,17,20,23-octaone]: the minimal effective concentration fell in the range of 0.001 to 0.01 µM.
The value for `CCc1cnn(Cc2ccc(C[C@H]3OC(=O)[C@H](CC(C)C)N(C)C(=O)[C@@H](C)OC(=O)[C@H](CC(C)C)N(C)C(=O)[C@@H](Cc4ccccc4)OC(=O)[C@H](CC(C)C)N(C)C(=O)[C@@H](C)OC(=O)[C@H](CC(C)C)N(C)C3=O)cc2)c1` [Example 2-9, (3S,6R,9S,12R,15S,18R,21S,24R)-6-benzyl-18-[[4-[(4-ethylpyrazol-1-yl)methyl]phenyl]methyl]-3,9,15,21-tetraisobutyl-4,10,12,16,22,24-hexamethyl-1,7,13,19-tetraoxa-4,10,16,22-tetrazacyclotetracosane-2,5,8,11,14,17,20,23-octaone] was 0.01 to 0.1 µM; that for `CC(C)C[C@H]1C(=O)O[C@H](Cc2ccc(Cn3ccc(-c4ccccc4)n3)cc2)C(=O)N(C)[C@@H](CC(C)C)C(=O)O[C@H](C)C(=O)N(C)[C@@H](CC(C)C)C(=O)O[C@H](Cc2ccccc2)C(=O)N(C)[C@@H](CC(C)C)C(=O)O[C@H](C)C(=O)N1C` [Example 2-56, (3S,6R,9S,12R,15S,18R,21S,24R)-6-benzyl-3,9,15,21-tetraisobutyl-4,10,12,16,22,24-hexamethyl-18-(4-((3-phenyl-1H-pyrazol-1-yl)methyl)benzyl)-1,7,13,19-tetraoxa-4,10,16,22-tetraazacyclotetracosan-2,5,8,11,14,17,20,23-octaone] was 0.01 to 0.1 µM; that for `CC(C)C[C@H]1C(=O)O[C@H](Cc2ccc(Cn3ccc(Cl)cc3=O)cc2)C(=O)N(C)[C@@H](CC(C)C)C(=O)O[C@H](C)C(=O)N(C)[C@@H](CC(C)C)C(=O)O[C@H](Cc2ccc(Cn3ccc(Cl)cc3=O)cc2)C(=O)N(C)[C@@H](CC(C)C)C(=O)O[C@H](C)C(=O)N1C` [Example 9-21, (3S,6R,9S,12R,15S,18R,21S,24R)-6,18-bis(4-((4-chloro-2-oxopyridin-1 (2H)-yl)methyl)benzyl)-3,9,15,21-tetraisobutyl-4,10,12,16,22,24-hexamethyl-1,7,13,19-tetraoxa-4,10,16,22-tetraazacyclotetracosan-2,5,8,11,14,17,20,23-octaone] was 0.001 to 0.01 µM.
In the case of `CCc1nccn1Cc1ccc(C[C@H]2OC(=O)[C@H](CC(C)C)N(C)C(=O)[C@@H](C)OC(=O)[C@H](CC(C)C)N(C)C(=O)[C@@H](Cc3ccc(Cn4ccnc4CC)cc3)OC(=O)[C@H](CC(C)C)N(C)C(=O)[C@@H](C)OC(=O)[C@H](CC(C)C)N(C)C2=O)cc1` [Example 6-4, (3S,6R,9S,12R,15S,18R,21S,24R)-6,18-bis[[4-[(2-ethylimidazol-1-yl)methyl]phenyl]methyl]-3,9,15,21-tetraisobutyl-4,10,12,16,22,24-hexamethyl-1,7,13,19-tetraoxa-4,10,16,22-tetrazacyclotetracosane-2,5,8,11,14,17,20,23-octaone] it was 0.01 to 0.1 µM; in that of `CCOC(=O)c1cnn(Cc2ccc(C[C@H]3OC(=O)[C@H](CC(C)C)N(C)C(=O)[C@@H](C)OC(=O)[C@H](CC(C)C)N(C)C(=O)[C@@H](Cc4ccc(Cn5cc(C(=O)OCC)cn5)cc4)OC(=O)[C@H](CC(C)C)N(C)C(=O)[C@@H](C)OC(=O)[C@H](CC(C)C)N(C)C3=O)cc2)c1` [Example 1b-39, diethyl 1,1′-(((((2R,5S,8R,11S,14R,17S,20R,23S)-5,11,17,23-tetraisobutyl-4,8,10,16,20,22-hexamethyl-3,6,9,12,15,18,21,24-octaoxo-1,7,13,19-tetraoxa-4,10,16,22-tetraazacyclotetracosane-2,14-diyl)bis(methylene))bis(4,1-phenylene))bis(methylene))bis(1H-pyrazole-4-carboxylate)], 0.01 to 0.1 µM.
In the case of `CC(C)C[C@H]1C(=O)O[C@H](Cc2ccc(Cn3nc(C(C)C)cc3C(C)C)cc2)C(=O)N(C)[C@@H](CC(C)C)C(=O)O[C@H](C)C(=O)N(C)[C@@H](CC(C)C)C(=O)O[C@H](Cc2ccccc2)C(=O)N(C)[C@@H](CC(C)C)C(=O)O[C@H](C)C(=O)N1C` [Example 2-54, (3S,6R,9S,12R,15S,18R,21S,24R)-6-benzyl-18-(4-((3,5-diisopropyl-1H-pyrazol-1-yl)methyl)benzyl)-3,9,15,21-tetraisobutyl-4,10,12,16,22,24-hexamethyl-1,7,13,19-tetraoxa-4,10,16,22-tetraazacyclotetracosan-2,5,8,11,14,17,20,23-octaone] it was 0.01 to 0.1 µM; in that of `CC(C)C[C@H]1C(=O)O[C@H](Cc2ccc(CN3CCOc4cccnc43)cc2)C(=O)N(C)[C@@H](CC(C)C)C(=O)O[C@H](C)C(=O)N(C)[C@@H](CC(C)C)C(=O)O[C@H](Cc2ccc(CN3CCOc4cccnc43)cc2)C(=O)N(C)[C@@H](CC(C)C)C(=O)O[C@H](C)C(=O)N1C` [Example 9-64, (3S,6R,9S,12R,15S,18R,21S,24R)-6,18-bis[[4-(2,3-dihydropyrido[3,2-b][1,4]oxazin-4-ylmethyl)phenyl]methyl]-3,9,15,21-tetraisobutyl-4,10,12,16,22,24-hexamethyl-1,7,13,19-tetraoxa-4,10,16,22-tetrazacyclotetracosane-2,5,8,11,14,17,20,23-octaone], 0.01 to 0.1 µM; in that of `Cc1ccc(OCc2cn(Cc3ccc(C[C@H]4OC(=O)[C@H](CC(C)C)N(C)C(=O)[C@@H](C)OC(=O)[C@H](CC(C)C)N(C)C(=O)[C@@H](Cc5ccccc5)OC(=O)[C@H](CC(C)C)N(C)C(=O)[C@@H](C)OC(=O)[C@H](CC(C)C)N(C)C4=O)cc3)nn2)cc1` [Example 10-21, (3S,6R,9S,12R,15S,18R,21S,24R)-6-benzyl-3,9,15,21-tetraisobutyl-4,10,12,16,22,24-hexamethyl-18-(4-((4-((p-tolyloxy)methyl)-1H-1,2,3-triazol-1-yl)methyl)benzyl)-1,7,13,19-tetraoxa-4,10,16,22-tetraazacyclotetracosan-2,5,8,11,14,17,20,23-octaone], 0.01 to 0.1 µM.
On to `CC(C)C[C@H]1C(=O)O[C@H](Cc2ccc(Cn3nc(-c4ccco4)cc3CO)cc2)C(=O)N(C)[C@@H](CC(C)C)C(=O)O[C@H](C)C(=O)N(C)[C@@H](CC(C)C)C(=O)O[C@H](Cc2ccc(Cn3nc(C#N)cc3C#N)cc2)C(=O)N(C)[C@@H](CC(C)C)C(=O)O[C@H](C)C(=O)N1C` [Example 1a-3, 1-(4-(((2R,5S,8R,11S,14R,17S,20R,23S)-14-(4-((3-(furan-2-yl)-5-(hydroxymethyl)-1H-pyrazol-1-yl)methyl)benzyl)-5,11,17,23-tetraisobutyl-4,8,10,16,20,22-hexamethyl-3,6,9,12,15,18,21,24-octaoxo-1,7,13,19-tetraoxa-4,10,16,22-tetraazacyclotetracosan-2-yl)methyl)benzyl)-1H-pyrazole-3,5-dicarbonitrile], for which the minimal effective concentration was in the range of 0.01 to 0.1 µM.
In the case of `CCOc1c(C)nn(Cc2ccc(C[C@H]3OC(=O)[C@H](CC(C)C)N(C)C(=O)[C@@H](C)OC(=O)[C@H](CC(C)C)N(C)C(=O)[C@@H](Cc4ccc(Cn5nc(C)c(OCC)c5C)cc4)OC(=O)[C@H](CC(C)C)N(C)C(=O)[C@@H](C)OC(=O)[C@H](CC(C)C)N(C)C3=O)cc2)c1C` [Example 1b-191, (3S,6R,9S,12R,15S,18R,21S,24R)-6,18-bis(4-((4-ethoxy-3,5-dimethyl-1H-pyrazol-1-yl)methyl)benzyl)-3,9,15,21-tetraisobutyl-4,10,12,16,22,24-hexamethyl-1,7,13,19-tetraoxa-4,10,16,22-tetraazacyclotetracosan-2,5,8,11,14,17,20,23-octaone] it was 0.01 to 0.1 µM; in that of `Cc1cnn(Cc2ccc(C[C@H]3OC(=O)[C@H](CC(C)C)N(C)C(=O)[C@@H](C)OC(=O)[C@H](CC(C)C)N(C)C(=O)[C@@H](Cc4ccc(Cn5ccc(-c6ccccc6)n5)cc4)OC(=O)[C@H](CC(C)C)N(C)C(=O)[C@@H](C)OC(=O)[C@H](CC(C)C)N(C)C3=O)cc2)c1` [Example 1a-28, (3S,6R,9S,12R,15S,18R,21S,24R)-3,9,15,21-tetraisobutyl-4,6,10,16,18,22-hexamethyl-12-(4-((4-methyl-1H-pyrazol-1-yl)methyl)benzyl)-24-(4-((3-phenyl-1H-pyrazol-1-yl)methyl)benzyl)-1,7,13,19-tetraoxa-4,10,16,22-tetraazacyclotetracosan-2,5,8,11,14,17,20,23-octaone], 0.01 to 0.1 µM.
